Results taken from publication PMC9011347, “Small-Molecule Inhibitors Targeting Lipolysis in Human Adipocytes” (Journal of the American Chemical Society, 2022).

Experiment: Serum stability of ATGL inhibitors (UHPLC-MS)
Format: in vitro ADME, human
Settings: 3 h at 37 °C
Description: Figure 2 Development and characterization of the human ATGL inhibitor NG-497. (a) Structure and IC50 values of human ATGL inhibitors. (b) Dose-dependent inhibition of human ATGL by respective inhibitors. (c) ATGL activity was determined at the indicated substrate concentrations in the absence and presence of NG-497 (0.5 μM). Ki was determined by nonlinear regression analysis using GraphPad Prism. Lineweaver–Burk analysis of ATGL inhibition is shown in the inset. (d) Toxicity of NG-497 in HepG2 cells was determined after 24 h incubation at indicated concentrations. Cisplatin and DMSO were used as positive and negative controls, respectively. Cytotoxicity was determined using the Roche LDH Kit and calculated as relative LDH release compared to fully lysed cells. (e) Stability of NG-497 was analyzed via ultrahigh-performance liquid chromatography–mass spectrometry (UHPLC-MS) after incubation in human serum for 0 or 3 h at 37 °C. Atglistatin and a chemically related unstable compound were used as controls. […] NG-497 concentrations/well were determined at the indicated time points using UHPLC-MS. […] Statistical significance was determined via t test (*p < 0.05; **p < 0.01; ***p < 0.001) or ANOVA followed by Bonferroni post hoc test (^###p < 0.001). […] The detected 297 lipid species of both groups were analyzed with supervised multivariate analysis OPLS-DA and are shown as a loading plot. […]

| SMILES | stability in human serum |
| --- | --- |
| CN(C)C(=O)Nc1cccc(-c2ccc(N(C)C)cc2)c1 [Atglistatin, reference compound] | not metabolized |
| CCOc1ccc(-c2cc(OC)cc(C(=O)OC(C)C)n2)cc1 [NG-497] | not metabolized |
